# Test results taken from patent publication US4401660A, “Ester derivatives of 5-O-mycaminosyl tylonolide and method of using same” (Eli Lilly and Company, priority 1981, dated 1983).
# Like-named read-outs stand apart in the source and are kept apart here.
# Legend:
# [1] = test system: Mycoplasma synoviae; assay: MIC, broth-dilution microtiter test (Table III); format: cell-based; parameters: unit not given here
# Protocol: (§1) The MIC's in Table II were determined by standard agar-dilution assays. The MIC's in Table III were obtained using a conventional broth-dilution microtiter test.
# [2] = test system: Pasteurella haemolytica 23C; assay: MIC, broth-dilution microtiter test (Table III); format: cell-based; parameters: unit not given here
# Protocol: as §1
# [3] = test system: Streptococcus sp. 80; assay: MIC, broth-dilution microtiter test (Table III); format: cell-based; parameters: unit not given here
# Protocol: as §1
# [4] = test system: Pasteurella multocida 17E; assay: MIC, broth-dilution microtiter test (Table III); format: cell-based; parameters: unit not given here; conditions: bovine isolate
# Protocol: as §1
# [5] = test system: Pasteurella haemolytica 22C; assay: MIC, broth-dilution microtiter test (Table III); format: cell-based; parameters: unit not given here
# Protocol: as §1
# [6] = test system: Mycoplasma gallisepticum; assay: MIC, broth-dilution microtiter test (Table III); format: cell-based; parameters: unit not given here
# Protocol: as §1
# [7] = test system: Mycoplasma hyorhinis; assay: MIC, broth-dilution microtiter test (Table III); format: cell-based; parameters: unit not given here
# Protocol: as §1
# [8] = test system: Pasteurella multocida 60A; assay: MIC, broth-dilution microtiter test (Table III); format: cell-based; parameters: unit not given here; conditions: avian isolate
# Protocol: as §1
# [9] = test system: Pasteurella multocida 22A; assay: MIC, broth-dilution microtiter test (Table III); format: cell-based; parameters: unit not given here
# Protocol: as §1
# [10] = test system: Staphylococcus aureus; assay: MIC, broth-dilution microtiter test (Table III); format: cell-based; parameters: unit not given here
# Protocol: as §1
# [11] = test system: Pasteurella multocida 68C; assay: MIC, broth-dilution microtiter test (Table III); format: cell-based; parameters: unit not given here
# Protocol: as §1
# [12] = test system: Pasteurella haemolytica 41D; assay: MIC, broth-dilution microtiter test (Table III); format: cell-based; parameters: unit not given here
# Protocol: as §1
# [13] = test system: Pasteurella multocida 40G; assay: MIC, broth-dilution microtiter test (Table III); format: cell-based; parameters: unit not given here
# Protocol: as §1
# [14] = test system: Haemophilus influenzae R252; assay: MIC, standard agar-dilution assay (Table II); format: cell-based; parameters: unit not given here; conditions: Haemophilus influenzae R252, ampicillin-resistant strain
# Protocol: as §1
# [15] = test system: Staphylococcus epidermidis EPI2; assay: MIC, standard agar-dilution assay (Table II); format: cell-based; parameters: unit not given here
# Protocol: as §1
# [16] = test system: Staphylococcus epidermidis EPI1; assay: MIC, standard agar-dilution assay (Table II); format: cell-based; parameters: unit not given here
# Protocol: as §1
# [17] = test system: Streptococcus pneumoniae Park I; assay: MIC, standard agar-dilution assay (Table II); format: cell-based; parameters: unit not given here
# Protocol: as §1
# [18] = test system: Staphylococcus aureus X400; assay: MIC, standard agar-dilution assay (Table II); format: cell-based; parameters: unit not given here; conditions: Staphylococcus aureus X400, methicillin-resistant strain
# Protocol: as §1
# [19] = test system: Staphylococcus aureus X1.1; assay: MIC, standard agar-dilution assay (Table II); format: cell-based; parameters: unit not given here
# Protocol: as §1
# [20] = test system: Haemophilus influenzae Holt; assay: MIC, standard agar-dilution assay (Table II); format: cell-based; parameters: unit not given here; conditions: ampicillin-sensitive strain
# Protocol: as §1
# [21] = test system: Streptococcus pyogenes C203; assay: MIC, standard agar-dilution assay (Table II); format: cell-based; parameters: unit not given here
# Protocol: as §1
# [22] = test system: Streptococcus Group D 9960; assay: MIC, standard agar-dilution assay (Table II); format: cell-based; parameters: unit not given here
# Protocol: as §1
# [23] = test system: Streptococcus Group D X66; assay: MIC, standard agar-dilution assay (Table II); format: cell-based; parameters: unit not given here
# Protocol: as §1
# [24] = test system: Staphylococcus aureus V41; assay: MIC, standard agar-dilution assay (Table II); format: cell-based; parameters: unit not given here; conditions: Staphylococcus aureus V41, penicillin-resistant strain
# Protocol: as §1
# [25] = test system: Staphylococcus aureus S13E; assay: MIC, standard agar-dilution assay (Table II); format: cell-based; parameters: unit not given here
# Protocol: as §1
# [26] = test system: Streptococcus pyogenes C203; assay: ED50 in mice with experimental infections (Table IV); format: in vivo; conditions: Streptococcus pyogenes, doses given 1 and 4 hours postinfection
# Summary of the method: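 Read-out is ED50, the mg/kg dose protecting half of infected mice; values refer to each of two doses, given 1 and 4 hours after infection.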
# [27] = test system: Pasteurella multocida; assay: Treatment of Pasteurella infections in chicks (Table V); format: in vivo, one-day-old chicks; conditions: Pasteurella multocida, sc, 4 h; 30 mg/kg by subcutaneous injection one and four hours post challenge; read-out: Deaths in Treated Chicks/Number Treated (converted)
# Summary of the method: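 Dosing was 30 mg/kg by subcutaneous injection, one and four hours after challenge. Day-old chicks received 0.1 ml of a 10^-3 dilution of a 20-hour tryptose broth culture of avian P. multocida subcutaneously. Nonmedicated infected chicks served as controls, ten per group.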
# [28] = C203, oral, read-out: ED50, Oral
# [29] = C203, sc, subcutaneous, read-out: ED50, Subcutaneous
SMILES,minimal inhibitory concentration (MIC) [1],minimal inhibitory concentration (MIC) [2],minimal inhibitory concentration (MIC) [3],minimal inhibitory concentration (MIC) [4],minimal inhibitory concentration (MIC) [5],minimal inhibitory concentration (MIC) [6],minimal inhibitory concentration (MIC) [7],minimal inhibitory concentration (MIC) [8],minimal inhibitory concentration (MIC) [9],minimal inhibitory concentration (MIC) [10],minimal inhibitory concentration (MIC) [11],minimal inhibitory concentration (MIC) [12],minimal inhibitory concentration (MIC) [13],minimal inhibitory concentration (MIC) [14],minimal inhibitory concentration (MIC) [15],minimal inhibitory concentration (MIC) [16],minimal inhibitory concentration (MIC) [17],minimal inhibitory concentration (MIC) [18],minimal inhibitory concentration (MIC) [19],minimal inhibitory concentration (MIC) [20],other results
CCC1OC(=O)CC(O)C(C)C(OC2OC(C)C(O)C(N(C)C)C2O)C(CC=O)CC(C)C(=O)C=CC(C)=CC1COC(=O)C(C)(C)C (stereo not shown) [Compound 68],< 0.048,3.12,< 0.78,3.12,6.25,0.097,0.097,3.12,3.12,1.56,1.56,6.25,3.12,2,0.25,0.25,0.06,0.25,0.25,1,"minimal inhibitory concentration (MIC) [21]: 0.125; minimal inhibitory concentration (MIC) [22]: 0.25; minimal inhibitory concentration (MIC) [23]: 0.25; minimal inhibitory concentration (MIC) [24]: 0.25; minimal inhibitory concentration (MIC) [25]: 0.25; ED50 [26, 28]: > 100 mg/kg; ED50 [26, 29]: 3.8 mg/kg; mortality at 30 mg/kg [27]: 0%"
"CCC1OC(=O)CC(O)C(C)C(OC2OC(C)C(OC(C)=O)C(N(C)C)C2OC(C)=O)C(CC=O)CC(C)C(=O)C=CC(C)=CC1COC(=O)Cc1ccccc1 (stereo not shown) [Compound 27, 2',4'-Di-O-acetyl-23-O-phenylacetyl-OMT]",0.05,3.12,0.05,1.56,3.12,0.05,0.097,0.78,3.12,0.097,1.56,3.12,3.12,1,0.25,0.25,0.03,0.25,0.25,1,"minimal inhibitory concentration (MIC) [21]: 0.06; minimal inhibitory concentration (MIC) [22]: 0.125; minimal inhibitory concentration (MIC) [23]: 0.125; minimal inhibitory concentration (MIC) [24]: 0.25; minimal inhibitory concentration (MIC) [25]: 0.25; ED50 [26, 28]: 159 mg/kg; ED50 [26, 29]: > 30 mg/kg; mortality at 30 mg/kg [27]: 90%"
"CCC1OC(=O)CC(O)C(C)C(OC2OC(C)C(O)C(N(C)C)C2O)C(CC=O)CC(C)C(=O)C=CC(C)=CC1COC(=O)Cc1ccccc1 (stereo not shown) [Compound 29, 23-O-Phenylacetyl-OMT]",0.05,3.12,0.05,1.56,3.12,0.05,0.195,0.78,1.56,0.097,1.56,3.12,1.56,1,0.25,0.125,0.03,0.125,0.125,0.5,"minimal inhibitory concentration (MIC) [21]: 0.06; minimal inhibitory concentration (MIC) [22]: 0.125; minimal inhibitory concentration (MIC) [23]: 0.125; minimal inhibitory concentration (MIC) [24]: 0.125; minimal inhibitory concentration (MIC) [25]: 0.125; ED50 [26, 28]: > 100 mg/kg; ED50 [26, 29]: 5 mg/kg; mortality at 30 mg/kg [27]: 0%"
CCC1OC(=O)CC(O)C(C)C(OC2OC(C)C(O)C(N(C)C)C2O)C(CC=O)CC(C)C(=O)C=CC(C)=CC1COC(=O)OC (stereo not shown) [Compound 74],0.195,3.12,0.39,1.56,6.25,< 0.048,0.78,1.56,25,1.56,12.5,1.56,12.5,2,0.25,0.25,0.03,0.5,0.25,1,"minimal inhibitory concentration (MIC) [21]: 0.25; minimal inhibitory concentration (MIC) [22]: 0.25; minimal inhibitory concentration (MIC) [23]: 0.5; minimal inhibitory concentration (MIC) [24]: 0.25; minimal inhibitory concentration (MIC) [25]: 0.25; ED50 [26, 28]: > 100 mg/kg; ED50 [26, 29]: 3 mg/kg; mortality at 30 mg/kg [27]: 0%"
